Data set [1] concerns Nilaparvata lugens. Nature of the data set: Insecticidal activity against Nilaparvata lugens (brown planthopper) third-instar larvae contacted with rice stems pre-exposed to compound assessed as insect mortality at 10 ppm measured 5 days post insect release by contact exposure test. The settings on record: 120 h. It is filed as functional.
Data set [2] deals with Myzus persicae. Nature of the data set: Insecticidal activity against Myzus persicae (green peach aphid) infested Brassica campestris stems followed by cut stem exposure to test compound assessed as insect mortality at 1 ppm measured 5 days post compound treatment by systemic exposure test. Format: functional. As to conditions: 120 h.
Data set [3] concerns Myzus persicae. The data set is described as follows: Insecticidal activity against Myzus persicae (green peach aphid) infested Brassica campestris stems followed by leaf exposure to test compound spraying assessed as insect mortality at 10 ppm measured 5 days post compound treatment by contact exposure test. As to conditions: 120 h. It is filed as functional.
Another data set concerns Oryza sativa. The data set is described as follows: Phytotoxicity against Oryza sativa exposed to compound spraying at […] measured 7 days post compound treatment by post-emergence glasshouse test. Format: organism-based. The settings on record: in vivo, other, 168 h.
The subject of data set [4] is Nilaparvata lugens. The data set is described as follows: Insecticidal activity against Nilaparvata lugens (brown planthopper) third-instar larvae reared on rice seedlings assessed as insect mortality at 1 ppm measured 5 days post compound treatment by systemic exposure test. It is filed as functional. As to conditions: 120 h.
Data set [5] has as its system Myzus persicae. The data set is described as follows: Insecticidal activity against Myzus persicae (green peach aphid) infested Brassica campestris stems followed by leaf exposure to test compound spraying assessed as insect mortality at 1 ppm measured 5 days post compound treatment by contact exposure test. As to conditions: 120 h. It is filed as functional.
Data set [6] has as its system Nilaparvata lugens. Nature of the data set: Insecticidal activity against Nilaparvata lugens (brown planthopper) third-instar larvae reared on rice seedlings assessed as insect mortality at 10 ppm measured 5 days post compound treatment by systemic exposure test. Format: functional. The settings on record: 120 h.
The subject of data set [7] is Myzus persicae. Nature of the data set: Insecticidal activity against Myzus persicae (green peach aphid) infested Brassica campestris stems followed by cut stem exposure to test compound assessed as insect mortality at 0.1 ppm measured 5 days post compound treatment by systemic exposure test. Format: functional. The settings on record: 120 h.
Data set [8] concerns Nilaparvata lugens. Nature of the data set: Insecticidal activity against Nilaparvata lugens (brown planthopper) third-instar larvae contacted with rice stems pre-exposed to compound assessed as insect mortality at 1 ppm measured 5 days post insect release by contact exposure test. It is filed as functional. The settings on record: 120 h.
The test system of a further data set is Cucumis sativus. The data set is described as follows: Phytotoxicity against Cucumis sativus (cucumber) exposed to compound spraying at […] measured 7 days post compound treatment by post-emergence glasshouse test. It is filed as organism-based. The settings on record: in vivo, other, 168 h.

Usually mortality stands for the percentage killed. For the molecule `CCCON1C(=O)C(c2c(C)cc(C)cc2C)=C(O)C1(C)C`, the mortality at 10 ppm amounted to 100% with Nilaparvata lugens [1], 30% in the data set with Myzus persicae [3] and 100% in the data set on Nilaparvata lugens [6]. The mortality at 1 ppm in the data set on Myzus persicae [2] amounted to 90%; in the data set with Nilaparvata lugens [4], 60%; with Myzus persicae [5] it was 0%; in the data set on Nilaparvata lugens [8], 30%. Besides, the Phytotoxicity in the data set with Oryza sativa is on record as 100%; in the data set on Cucumis sativus, 0%. For the same molecule, the mortality at 0.1 ppm with Myzus persicae [7] came out at 90%.

Regarding `COCON1C(=O)C(c2c(C)cc(C)cc2C)=C(OC(=O)CC(C)(C)C)C1(C)C`, the mortality at 10 ppm in the data set with Nilaparvata lugens [1] and in the data set with Myzus persicae [3] was 100% throughout. Moreover, the mortality at 1 ppm with Myzus persicae [2] turned out to be 100%; in the data set on Nilaparvata lugens [4], 30%; in the data set on Myzus persicae [5] it was 100%; in the data set with Nilaparvata lugens [8] it was 30%. In addition, the Phytotoxicity with Oryza sativa came out at 100%; in the data set on Cucumis sativus it was 90%. Further, the mortality at 0.1 ppm in the data set on Myzus persicae [7] came out at 100%.

With `Cc1cc(C)c(C2=C(O)C(C)(C)N(O)C2=O)c(C)c1`, the mortality at 10 ppm in the data set on Nilaparvata lugens [1] was 0%; in the data set with Myzus persicae [3], 60%. The mortality at 1 ppm in the data set on Myzus persicae [2] was 100%; in the data set on Nilaparvata lugens [4] it was 0%; in the data set with Myzus persicae [5], 0%; in the data set on Nilaparvata lugens [8] it was 0%. For the same molecule, the figures for the Phytotoxicity in the data set with Oryza sativa and in the data set on Cucumis sativus were 90% and 60%, respectively. The mortality at 0.1 ppm in the data set on Myzus persicae [7] was determined as 0%.

For `COCON1C(=O)C(c2c(C)cc(C)cc2C)=C(O)C1(C)C`, the mortality at 10 ppm in the data set on Nilaparvata lugens [1], in the data set with Myzus persicae [3] and in the data set on Nilaparvata lugens [6] was 100% throughout. For the same molecule, the mortality at 1 ppm with Myzus persicae [2] amounted to 100%; in the data set on Nilaparvata lugens [4] it was 60%; in the data set with Myzus persicae [5], 0%; in the data set on Nilaparvata lugens [8], 60%. For the same molecule, the results for the Phytotoxicity in the data set on Oryza sativa and in the data set on Cucumis sativus were 100% and 90%, respectively. Besides, the mortality at 0.1 ppm in the data set with Myzus persicae [7] was found to be 100%.

Take `COCCOCON1C(=O)C(c2c(C)cc(C)cc2C)=C(O)C1(C)C`: the mortality at 10 ppm stood at 60% in the data set with Nilaparvata lugens [1], 90% with Myzus persicae [3] and 100% in the data set on Nilaparvata lugens [6]. For the same molecule, the mortality at 1 ppm stood at 100% in the data set with Myzus persicae [2], 30% with Nilaparvata lugens [4], 0% with Myzus persicae [5] and 30% in the data set on Nilaparvata lugens [8]. The Phytotoxicity with Oryza sativa and in the data set with Cucumis sativus was 100% in each case. Also, the mortality at 0.1 ppm in the data set on Myzus persicae [7] stood at 100%.

`COC(=O)ON1C(=O)C(c2c(C)cc(C)cc2C)=C(OC(=O)CC(C)(C)C)C1(C)C`: the mortality at 1 ppm was 0% in the data set with Myzus persicae [2], 30% with Nilaparvata lugens [4], 0% in the data set with Myzus persicae [5] and 60% in the data set with Nilaparvata lugens [8]. The mortality at 10 ppm in the data set with Myzus persicae [3] came out at 0%. For the same molecule, the Phytotoxicity turned out to be 60% with Oryza sativa and 0% in the data set on Cucumis sativus. The mortality at 0.1 ppm in the data set on Myzus persicae [7] came to 0%.

Take `Cc1cc(C)c(C2=C(O)C(C)(C)N(OCc3ccccc3)C2=O)c(C)c1`: the mortality at 10 ppm with Nilaparvata lugens [1] worked out at 0%; with Myzus persicae [3] it was 0%; in the data set on Nilaparvata lugens [6], 100%. The mortality at 1 ppm came to 0% with Myzus persicae [2], 30% with Nilaparvata lugens [4], 0% in the data set on Myzus persicae [5] and 30% in the data set with Nilaparvata lugens [8]. The figures for the Phytotoxicity in the data set with Oryza sativa and in the data set with Cucumis sativus were 30% and 0%, respectively. The mortality at 0.1 ppm in the data set on Myzus persicae [7] worked out at 0%.

`Cc1cc(C)c(C2=C(OC(=O)CC(C)(C)C)C(C)(C)N(OCC#N)C2=O)c(C)c1`: the mortality at 10 ppm with Nilaparvata lugens [1], in the data set on Myzus persicae [3] and in the data set on Nilaparvata lugens [6] was 100% throughout. The mortality at 1 ppm was 100% in the data set on Myzus persicae [2], 60% with Nilaparvata lugens [4], 0% in the data set on Myzus persicae [5] and 90% in the data set on Nilaparvata lugens [8]. Further, the Phytotoxicity worked out at 0% with Oryza sativa and 60% with Cucumis sativus. Besides, in the data set with Myzus persicae [7], the mortality at 0.1 ppm was determined as 0%.

As for `Cc1cc(C)c(C2=C(O)C(C)(C)N(OCC3CCCCC3)C2=O)c(C)c1`, the results for the mortality at 10 ppm with Nilaparvata lugens [1], with Myzus persicae [3] and with Nilaparvata lugens [6] were 90%, 0% and 60%, respectively. The mortality at 1 ppm in the data set with Myzus persicae [2] was found to be 60%; in the data set on Nilaparvata lugens [4], 60%; in the data set on Myzus persicae [5], 0%; in the data set on Nilaparvata lugens [8] it was 30%. The values for the Phytotoxicity in the data set with Oryza sativa and in the data set with Cucumis sativus were 60% and 0%, respectively. Further, the mortality at 0.1 ppm in the data set with Myzus persicae [7] stood at 0%.

Turning to `Cc1cc(C)c(C2=C(OC(=O)CC(C)(C)C)C(C)(C)N(OC(=O)N(C)C)C2=O)c(C)c1`, the mortality at 1 ppm with Myzus persicae [2] is 0%; in the data set with Nilaparvata lugens [4] it was 30%; in the data set with Myzus persicae [5], 0%; in the data set with Nilaparvata lugens [8], 0%. Also, the mortality at 10 ppm in the data set with Myzus persicae [3] amounted to 0%. Moreover, the Phytotoxicity with Oryza sativa and with Cucumis sativus was 0% in each case. In addition, in the data set on Myzus persicae [7], the mortality at 0.1 ppm came out at 0%.

Consider `Cc1cc(C)c(C2=C(O)C(C)(C)N(OC(C)C)C2=O)c(C)c1`, for which the results for the mortality at 10 ppm with Nilaparvata lugens [1], with Myzus persicae [3] and in the data set on Nilaparvata lugens [6] were 60%, 0% and 90%, respectively. For the same molecule, the mortality at 1 ppm in the data set with Myzus persicae [2] was found to be 60%; in the data set on Nilaparvata lugens [4] it was 30%; in the data set with Myzus persicae [5], 0%; with Nilaparvata lugens [8] it was 30%. In addition, the Phytotoxicity with Oryza sativa was determined as 100%; in the data set on Cucumis sativus it was 0%. In the data set with Myzus persicae [7], the mortality at 0.1 ppm worked out at 0%.

`Cc1cc(C)c(C2=C(OC(=O)CC(C)(C)C)C(C)(C)N(OC(=O)C(C)(C)C)C2=O)c(C)c1`: the mortality at 1 ppm came out at 0% with Myzus persicae [2], 30% with Nilaparvata lugens [4], 0% with Myzus persicae [5] and 0% in the data set on Nilaparvata lugens [8]. The mortality at 10 ppm in the data set on Myzus persicae [3] worked out at 0%. Moreover, the Phytotoxicity with Oryza sativa and in the data set on Cucumis sativus was 0% in each case. Besides, in the data set on Myzus persicae [7], the mortality at 0.1 ppm came out at 0%.

`CSCON1C(=O)C(c2c(C)cc(C)cc2C)=C(O)C1(C)C`: the mortality at 10 ppm with Nilaparvata lugens [1] was 30%; in the data set with Myzus persicae [3] it was 0%; in the data set on Nilaparvata lugens [6] it was 100%. In addition, the mortality at 1 ppm turned out to be 90% with Myzus persicae [2], 30% with Nilaparvata lugens [4], 0% in the data set with Myzus persicae [5] and 30% with Nilaparvata lugens [8]. Moreover, the Phytotoxicity was found to be 90% with Oryza sativa and 0% in the data set on Cucumis sativus. In addition, in the data set on Myzus persicae [7], the mortality at 0.1 ppm is 30%.

Take `C#CCON1C(=O)C(c2c(C)cc(C)cc2C)=C(O)C1(C)C`: the mortality at 10 ppm in the data set with Nilaparvata lugens [1] turned out to be 100%; in the data set with Myzus persicae [3] it was 90%; in the data set with Nilaparvata lugens [6], 90%. Also, the mortality at 1 ppm with Myzus persicae [2] stood at 100%; in the data set with Nilaparvata lugens [4] it was 90%; with Myzus persicae [5] it was 0%; in the data set with Nilaparvata lugens [8], 60%. For the same molecule, the Phytotoxicity in the data set with Oryza sativa was found to be 100%; in the data set with Cucumis sativus, 0%. Besides, the mortality at 0.1 ppm with Myzus persicae [7] stood at 60%.

Turning to `C=CCON1C(=O)C(c2c(C)cc(C)cc2C)=C(O)C1(C)C`, the mortality at 10 ppm in the data set with Nilaparvata lugens [1] was found to be 90%; with Myzus persicae [3] it was 100%; with Nilaparvata lugens [6] it was 100%. For the same molecule, the mortality at 1 ppm turned out to be 100% with Myzus persicae [2], 60% with Nilaparvata lugens [4], 0% in the data set on Myzus persicae [5] and 60% in the data set with Nilaparvata lugens [8]. Besides, the Phytotoxicity in the data set on Oryza sativa turned out to be 100%; in the data set with Cucumis sativus, 0%. In addition, the mortality at 0.1 ppm in the data set with Myzus persicae [7] was 60%.

Take `Cc1cc(C)c(C2=C(OC(=O)CC(C)(C)C)C(C)(C)N(OC(=O)CC(C)(C)C)C2=O)c(C)c1`: the mortality at 1 ppm in the data set with Myzus persicae [2], in the data set on Nilaparvata lugens [4], with Myzus persicae [5] and in the data set with Nilaparvata lugens [8] was 0% in each case. Besides, the mortality at 10 ppm in the data set on Myzus persicae [3] is 60%. In addition, the Phytotoxicity in the data set on Oryza sativa and with Cucumis sativus was 0% throughout. Further, the mortality at 0.1 ppm in the data set with Myzus persicae [7] came out at 0%.

As to `CCOCON1C(=O)C(c2c(C)cc(C)cc2C)=C(OC(=O)CC(C)(C)C)C1(C)C`, the mortality at 10 ppm with Nilaparvata lugens [1], in the data set on Myzus persicae [3] and in the data set on Nilaparvata lugens [6] was 100% throughout. For the same molecule, the mortality at 1 ppm turned out to be 100% with Myzus persicae [2], 0% with Nilaparvata lugens [4], 100% in the data set with Myzus persicae [5] and 100% in the data set with Nilaparvata lugens [8]. Besides, the Phytotoxicity turned out to be 0% in the data set on Oryza sativa and 60% with Cucumis sativus. Further, in the data set with Myzus persicae [7], the mortality at 0.1 ppm came to 60%.

As for `Cc1cc(C)c(C2=C(OC(=O)CC(C)(C)C)C(C)(C)N(OS(C)(=O)=O)C2=O)c(C)c1`, the mortality at 1 ppm in the data set on Myzus persicae [2], with Nilaparvata lugens [4], in the data set with Myzus persicae [5] and with Nilaparvata lugens [8] was 0% in each case. The mortality at 10 ppm in the data set with Myzus persicae [3] was found to be 0%. In addition, the Phytotoxicity in the data set on Oryza sativa and with Cucumis sativus was 0% throughout. Further, the mortality at 0.1 ppm with Myzus persicae [7] is 0%.

Turning to `CC(=O)ON1C(=O)C(c2c(C)cc(C)cc2C)=C(OC(=O)CC(C)(C)C)C1(C)C`, the mortality at 1 ppm in the data set on Myzus persicae [2] came to 0%; in the data set with Nilaparvata lugens [4], 30%; in the data set on Myzus persicae [5] it was 0%; with Nilaparvata lugens [8] it was 60%. Further, in the data set with Myzus persicae [3], the mortality at 10 ppm came to 0%. Besides, the Phytotoxicity is reported as 60% in the data set with Oryza sativa and 0% with Cucumis sativus. In the data set with Myzus persicae [7], the mortality at 0.1 ppm was determined as 0%.
